Source: patent US10633570B2, “Anti-ice nucleation activator” (THE SCHOOL CORPORATION KANSAI UNIVERSITY, priority 2015, dated 2020)

Experiments:
Assay type in all cases: physicochemical
Pseudomonas fluorescens = assay: Anti-ice nucleation active performance, droplet-freezing method of Vali, with Pseudomonas fluorescens as ice nucleation active substance; details: Example 1 solution (1.0 mg/mL); Pseudomonas fluorescens in place of silver iodide
Procedure: The anti-ice nucleation active performance (supercooling acceleration performance) was measured by using the droplet-freezing method of Vali. More specifically, in accordance with the droplet-freezing method of Vali (FIG. 3), an aluminum film was placed on the copper plate of a cold plate chiller (CoolAce CCA-1000, Eyela), and the film was coated with a silicone oil suspension diluted with acetone and chloroform (a solution of acetone:chloroform=1:2). […]
(§1) The droplet-freezing temperature of each sample was referred to as SampleT50, and the droplet-freezing temperature of the blank sample was referred to as BlankT50. Then, the anti-ice nucleation activity level ΔT50 (° C.) was calculated by the following formula: Formula: ΔT50 (° C.)=BlankT50−SampleT50
A sample for evaluation of Example 1 was prepared in a manner similar to that described in Test Example 1, except that Pseudomonas fluorescens, which is the Pseudomonas bacterium, was used in place of silver iodide, which is an ice nucleation active substance. The anti-ice nucleation active performance (supercooling acceleration performance) was measured by using a test method similar to that described in Test Example 1.

[1] = Anti-ice nucleation active performance (supercooling acceleration), droplet-freezing method of Vali, with silver iodide; details: 100 μL mixed with 900 μL silver iodide 1.0 mg/mL, average of three tests; for Anti-ice nucleation activity level (ΔT50 = BlankT50 − SampleT50): purine base aqueous solution 1.0 mg/mL, cooling 1.0° C./min
Procedure: Nine hundred microliters of an aqueous solution was prepared by dissolving silver iodide (produced by Wako Pure Chemical Industries, Ltd.) in ultra-pure water to a silver iodide concentration of 1.0 mg/mL.
(§2) A blank sample was prepared by mixing 100 μL of ultra-pure water with 900 μL of the aqueous solution in which silver iodide was dissolved.
(§3) The anti-ice nucleation active performance (supercooling acceleration performance) was measured by using the droplet-freezing method of Vali. More specifically, in accordance with the droplet-freezing method of Vali (FIG. 3), an aluminum film was placed on the copper plate of a cold plate chiller (CoolAce CCA-1000, Eyela), and the film was coated with a silicone oil suspension diluted with acetone and chloroform (a solution of acetone:chloroform=1:2). Then, each sample for evaluation or the blank sample was dropped (10 μL each) on 30 points of the surface, the temperature was decreased at a rate of 1.0° C./min, and the temperature at which 50% of the 30 droplets were frozen was considered to be T50.
as §1
Nine hundred microliters of an aqueous solution was prepared by dissolving silver iodide in ultra-pure water to a silver iodide concentration of 1.0 mg/mL.
as §2
(§4) The results are average values of the results of the test performed three times.
as §2, §4

[2] = Anti-ice nucleation activity test with respect to biological material (beef liver), droplet-freezing method of Vali; details: final concentration 0.1 mg/mL, 10 μL dropped on 1 mm x 1 mm x 1 mm beef liver; blank ultra-pure water; average of three tests
Procedure: as §3
The droplet-freezing temperature of each sample was referred to as SampleT50, and the droplet-freezing temperature of the blank sample was referred to as BlankT50. Then, the anti-ice nucleation activity level ΔT50 (° C.) was calculated by the following formula: Formula: ΔT50 (° C.)=BlankT50−SampleT50 […]
The anti-ice nucleation active performance (supercooling acceleration performance) was measured by using a method similar to the droplet-freezing method of Vali described in Test Example 1. […]

[3] = adenine concentration series 0.1-6.0 (mM) per Example
[4] = polydeoxyadenylic acid with 6, 9 or 12 adenine bases, 1.0 mg/mL in TE buffer

Row | Compound | Anti-ice nucleation activity level (ΔT50) [1, 3] | Anti-ice nucleation activity level (ΔT50 = BlankT50 − SampleT50) [1] | other results
1 | Nc1ncnc2nc[nH]c12 [Example 1, adenine] | 9.2 °C | 9.2 °C | Anti-ice nucleation active performance (ΔT50) (Pseudomonas fluorescens): 1.0 °C; Anti-ice nucleation activity level with respect to beef liver [2]: 0.9 °C
2 | Nc1nc2nc[nH]c2c(=O)[nH]1 [Example 2, Guanine] | – | 1.0 °C | –
3 | O=c1[nH]cnc2nc[nH]c12 [Example 3, Hypoxanthine] | – | 2.1 °C | –
4 | Cn1cnc2c1c(=O)[nH]c(=O)n2C [Example 4, Theobromine] | – | 1.2 °C | –
5 | Cn1c(=O)c2c(ncn2C)n(C)c1=O [Example 5, Caffeine] | – | 1.3 °C | Anti-ice nucleation activity level with respect to beef liver [2]: 0.7 °C
6 | O=c1[nH]c(=O)c2[nH]c(=O)[nH]c2[nH]1 [Example 6, Uric acid] | – | 1.8 °C | –
7 | Cn1c(=O)c2[nH]cnc2n(C)c1=O [Example 7, Theophylline] | – | 2.0 °C | –
8 | Nc1ncnc2nc[nH]c12 [Example 8, adenine] | 1.7 °C | – | –
9 | Nc1ncnc2nc[nH]c12 [Example 9, adenine] | 2.3 °C | – | –
10 | Nc1ncnc2nc[nH]c12 [Example 10, adenine] | 4.3 °C | – | –
11 | Nc1ncnc2nc[nH]c12 [Example 11, adenine] | 4.9 °C | – | –
12 | Nc1ncnc2nc[nH]c12 [Example 12, adenine] | 7.8 °C | – | –
13 | Nc1ncnc2nc[nH]c12 [Example 13, adenine] | 6.7 °C | – | –
14 | Nc1ncnc2nc[nH]c12 [Example 14, adenine] | 7.2 °C | – | –
15 | polydeoxyadenylic acid [Example 15] | – | – | Anti-ice nucleation activity level (ΔT50) [1, 4]: 1.26 °C
16 | polydeoxyadenylic acid [Example 16] | – | – | Anti-ice nucleation activity level (ΔT50) [1, 4]: 1.43 °C
17 | polydeoxyadenylic acid [Example 17] | – | – | Anti-ice nucleation activity level (ΔT50) [1, 4]: 1.60 °C
